Source: patent publication EP4703354A1, “COMPOUND AS CCR6 ANTAGONIST, AND PHARMACEUTICAL COMPOSITION AND USE THEREOF” (Wuhan Createrna Science and Technology Co.,Ltd., priority 2023, dated 2024)
Like-named read-outs stand apart in the source and are kept apart here.

Tests used:
human CCR6 = molecular target: T1, human CCR6 (Homo sapiens, UniProt P51684); assay: human CCR6 calcium flux activity (FLIPR, HEK293 cells stably expressing human CCR6, CCL20 stimulation); type: cell-based; conditions: HEK293 cells stably expressing human CCR6, EC80 human MIP-3 alpha/CCL20; read-out: CCR6 inhibitory activity, IC50
T1 construct: expressed in transfected cells; host or cells: HEK293
T1 sequence (P51684 1-374): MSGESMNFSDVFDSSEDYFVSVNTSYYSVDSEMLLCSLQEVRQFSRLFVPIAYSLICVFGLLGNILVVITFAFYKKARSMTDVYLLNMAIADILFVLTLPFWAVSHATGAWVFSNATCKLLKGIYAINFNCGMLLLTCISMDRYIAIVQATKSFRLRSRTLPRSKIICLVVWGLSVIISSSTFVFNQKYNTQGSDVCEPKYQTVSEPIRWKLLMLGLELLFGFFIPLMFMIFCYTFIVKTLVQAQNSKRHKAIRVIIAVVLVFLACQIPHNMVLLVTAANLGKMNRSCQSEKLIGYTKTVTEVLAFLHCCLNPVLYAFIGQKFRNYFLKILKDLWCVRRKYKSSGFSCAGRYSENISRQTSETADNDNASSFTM
Experimental: The activity of the compounds was evaluated using HEK293 cells stably expressing human CCR6 via the FLIPR platform. A 384-well black cell culture plate (Greiner, 781946) was used, with a seeding density of 20,000 cells/well, and incubated overnight at 37°C in a 5% CO2 incubator. The culture medium in the cell plate wells was removed, and 20 µL of Fluo-4 Direct™ Calcium Assay Buffer (Invitrogen, F10471, Component C), 20 µL of 2× Fluo-4 Direct™ Calcium Assay Reagent (Invitrogen, F10471, Component A) working solution, and 10 µL of 6× test compound working solution were sequentially added to each well. The cell plate was incubated in a 37 °C, 5% CO2 incubator for 50 min, followed by a 10 min incubation at room temperature. Additionally, a 6×EC80 human MIP-3 alpha/CCL20 (MCE, HY-P7262) working solution was prepared. After the incubation was completed, 10 µL/well of the 6×EC80 human MIP-3 alpha/CCL20 working solution was transferred to the cell plate using a FLIPR instrument, and the fluorescence signal changes at an excitation wavelength of 494 nm and an emission wavelength of 516 nm were recorded over 90 seconds. The difference between the maximum fluorescence signal (RFUMax) and the minimum fluorescence signal (RFUMin) was used as the output signal. The compound inhibition rate and the log value of the compound concentration were calculated, and a four-parameter fitting analysis was performed using GraphPad Prism 8 software to obtain the IC50 value of the test compound.

[1] = in vivo pharmacokinetic study in SD rats; conditions: rat; for bioavailability: 1 mg/kg PO vs 1 mg/kg IV, read-out: Oral bioavailability F (%); for AUC(0-t) / Cmax / half-life: 1 mg/kg
Experimental: 2.2.1 Rats: SD rats, SPF grade, 6 rats per compound, male, body weight range 180-200 g.
2.2.2 Housing conditions: The animals were housed in an SPF-grade animal facility with free access to food and water, three per cage, under a 12/12-hour light/dark cycle (7:00 am/7:00 pm), at a temperature of 23 ± 3°C.
2.2.3 Drug preparation: The compound was precisely weighed, mixed with the required volume of 1% Tween 80, vortexed for 2 min, and then sonicated for 5 min until no visible particles remained. The mixture was subsequently stirred on a magnetic stirrer for 20 min, and the middle layer of the drug solution was collected for administration. For the IV group, the compound was accurately weighed, dissolved in the required volume of 50% PEG400, sonicated for 10 min, and vortexed until clear before administration.
The rats were randomly divided into 2 groups based on body weight, with 3 rats per compound per group. Group 1 was administered a single oral gavage dose (fasted), and Group 2 was administered a single tail vein bolus injection. Blood collection time points: for the po group, blood was collected at 0.167 h, 0.5 h, 1 h, 2 h, 3 h, 4 h, 6 h, and 8 h; for the iv group, blood was collected at 0.033 h, 0.167 h, 0.5 h, 1 h, 2 h, 4 h, 6 h, and 8 h.
After administration to the rats, blood was collected from the orbital venous plexus according to the sampling time points. Approximately 0.2-0.3 mL of blood was collected at each time point into anticoagulant EP tubes (containing 4 µL of EDTA-K2, 375 mg/mL, dried at 50°C). The tubes were slowly inverted up and down three times and stored in an ice box (for no more than 30 minutes). Centrifugation was performed at 4°C at 3000 × g for 10 minutes, and the supernatant was transferred to labeled EP tubes for bioanalytical testing. If testing could not be performed on the same day, the samples were stored at -80°C until analysis (care was taken to avoid multiple freeze/thaw cycles).
The data were analyzed using WinNonlin via a non-compartmental model to obtain PK parameters (Cmax, AUC0-last, AUCinf, T1/2, etc., selected based on different routes of administration). For specific data, please refer to Table 2. Table 2. PK experimental results of compounds in SD rats

IC50 (human CCR6) [nM] | other results | SMILES
53.6 | – | CN(C)C(=O)c1nccc(Nc2c(N[C@@H](C#CC3CCC3)[C@@]3(C)CC(F)(F)CO3)c(=O)c2=O)c1O (single isomer, unassigned) [110B]
– | bioavailability ([1]; in vivo): 136%; AUC(0-t) ([1]; in vivo, IV): 1500 ng·h/mL; Cmax ([1]; in vivo, IV): 3050 ng/mL; AUC(0-t) ([1]; in vivo, PO): 2040 ng·h/mL; Cmax ([1]; in vivo, PO): 822 ng/mL; half-life ([1]; in vivo, PO): 82.2 min | Cc1cccnc1C(Nc1c(Nc2ccnc(C(=O)N(C)C)c2O)c(=O)c1=O)C1(C)CCC(F)(F)C1 (single isomer, unassigned) [125B]
– | bioavailability ([1]; male, plasma): 51.6%; AUC(0-t) ([1]; male, plasma, IV): 716 ng·h/mL; Cmax ([1]; male, plasma, IV): 1890 ng/mL; AUC(0-t) ([1]; male, plasma, PO): 370 ng·h/mL; Cmax ([1]; male, plasma, PO): 285 ng/mL; half-life ([1]; male, plasma, PO): 230 min | Cc1cc(F)cnc1[C@H](Nc1c(Nc2ccnc(C(=O)N(C)C)c2O)c(=O)c1=O)[C@@]1(C)CC(F)(F)CO1 [093B, 4-((2-(((S)-((R)-4,4-difluoro-2-methyltetrahydrofuran-2-yl)(5-fluoro-3-methylpyridin-2-yl)methyl)amino)-3,4-dioxocyclobut-1-en-1-yl)amino)-3-hydroxy-N,N-dimethylpicolinamide]
2.4 | – | CN(C)C(=O)c1nccc(Nc2c(N[C@@H](c3ncccc3F)C3(C)CCCC3)c(=O)c2=O)c1O [compound 001, (R)-4-((2-(((3-fluoropyridin-2-yl)(1-methylcyclopentyl)methyl)amino)-3,4-dioxocyclobut-1-en-1-yl)amino)-3-hydroxy-N,N-dimethylpicolinamide]
74 | – | CN(C)C(=O)c1nccc(Nc2c(N[C@@H](c3cnccn3)C3(C)CCCC3)c(=O)c2=O)c1O [compound 006, (R)-3-hydroxy-N,N-dimethyl-4-((2-(((1-methylcyclopentyl)(pyrazin-2-yl)methyl)amino)-3,4-dioxocyclobut-1-en-1-yl)amino)picolinamide]
151 | – | CN(C)C(=O)c1nccc(Nc2c(N[C@@H](c3cccc(C(F)(F)F)n3)C3(C)CCCC3)c(=O)c2=O)c1O [compound 008, (R)-3-hydroxy-N,N-dimethyl-4-((2-(((1-methylcyclopentyl)(6-(trifluoromethyl)pyridin-2-yl)methyl)amino)-3,4-dioxocyclobut-1-en-1-yl)amino)picolinamide]
22.5 | – | CN(C)C(=O)c1nccc(Nc2c(N[C@@H](c3ncc(F)cc3Cl)C3(C)CCCC3)c(=O)c2=O)c1O [compound 011, (R)-4-((2-(((3-chloro-5-fluoropyridin-2-yl)(1-methylcyclopentyl)methyl)amino)-3,4-dioxocyclobut-1-en-1-yl)amino)-3-hydroxy-N,N-dimethylpicolinamide]
9 | – | CN(C)C(=O)c1nccc(Nc2c(N[C@@H](c3cc(Cl)ccn3)C3(C)CCCC3)c(=O)c2=O)c1O [compound 012, (R)-4-((2-(((4-chloropyridin-2-yl)(1-methylcyclopentyl)methyl)amino)-3,4-dioxocyclobut-1-en-1-yl)amino)-3-hydroxy-N,N-dimethylpicolinamide]
161 | – | CN(C)C(=O)c1nccc(Nc2c(N[C@@H](c3ncccc3C(F)F)C3(C)CCCC3)c(=O)c2=O)c1O [compound 015, (R)-4-((2-(((3-(difluoromethyl)pyridin-2-yl)(1-methylcyclopentyl)methyl)amino)-3,4-dioxocyclobut-1-en-1-yl)amino)-3-hydroxy-N,N-dimethylpicolinamide]
6.4 | – | CN(C)C(=O)c1nccc(Nc2c(N[C@@H](c3nccc(F)c3F)C3(C)CCCC3)c(=O)c2=O)c1O [compound 021, (R)-4-((2-(((3,4-difluoropyridin-2-yl)(1-methylcyclopentyl)methyl)amino)-3,4-dioxocyclobut-1-en-1-yl)amino)-3-hydroxy-N,N-dimethylpicolinamide]
47.4 | – | CN(C)C(=O)c1nccc(Nc2c(N[C@@H](c3ccc(F)c(F)n3)C3(C)CCCC3)c(=O)c2=O)c1O [compound 024, (R)-4-((2-(((5,6-difluoropyridin-2-yl)(1-methylcyclopentyl)methyl)amino)-3,4-dioxocyclobut-1-en-1-yl)amino)-3-hydroxy-N,N-dimethylpicolinamide]
0.7 | – | CC(C)N(C)C(=O)c1nccc(Nc2c(N[C@@H](c3ncccc3F)C3(C)CCCC3)c(=O)c2=O)c1O [compound 026, (R)-4-((2-(((3-fluoropyridin-2-yl)(1-methylcyclopentyl)methyl)amino)-3,4-dioxocyclobut-1-en-1-yl)amino)-3-hydroxy-N-isopropyl-N-methylpicolinamide]
1370 | – | CN(C)C(=O)c1nccc(Nc2c(NC(c3nn(C)c4c3COC4)C3(C)CCCC3)c(=O)c2=O)c1O (centres unmarked) [compound 027, 3-hydroxy-N,N-dimethyl-4-((2-(((1-methyl-4,6-dihydro-1H-furo[3,4-c]pyrazol-3-yl)(1-methylcyclopentyl)methyl)amino)-3,4-dioxocyclobut-1-en-1-yl)amino)picolinamide]
161 | – | Cc1c(C(Nc2c(Nc3ccnc(C(=O)N(C)C)c3O)c(=O)c2=O)C2(C)CCCC2)nn2c1CCC2 (centres unmarked) [compound 029, 3-hydroxy-N,N-dimethyl-4-((2-(((3-methyl-5,6-dihydro-4H-pyrrolo[1,2-b]pyrazol-2-yl)(1-methylcyclopentyl)methyl)amino)-3,4-dioxocyclobut-1-en-1-yl)amino)picolinamide]
887 | – | CN(C)C(=O)c1nccc(Nc2c(NC(C(=O)C3CC3)C3(C)CCCC3)c(=O)c2=O)c1O (centres unmarked) [compound 034, 4-((2-((2-cyclopropyl-1-(1-methylcyclopentyl)-2-oxoethyl)amino)-3,4-dioxocyclobut-1-en-1-yl)amino)-3-hydroxy-N,N-dimethylpicolinamide]
820 | – | CN(C)C(=O)c1nccc(Nc2c(NC(C(=O)C3CCC3)C3(C)CCCC3)c(=O)c2=O)c1O (centres unmarked) [compound 035, 4-((2-((2-cyclobutyl-1-(1-methylcyclopentyl)-2-oxoethyl)amino)-3,4-dioxocyclobut-1-en-1-yl)amino)-3-hydroxy-N,N-dimethylpicolinamide]
95.8 | – | CN(C)C(=O)c1nccc(Nc2c(N[C@@H](c3ccccc3)C3(C)CCCC3)c(=O)c2=O)c1O [compound 037, (R)-3-hydroxy-N,N-dimethyl-4-((2-(((1-methylcyclopentyl)(phenyl)methyl)amino)-3,4-dioxocyclobut-1-en-1-yl)amino)picolinamide]
113 | – | CC(C)[C@H](Nc1c(Nc2ccnc(C(=O)N(C)C)c2O)c(=O)c1=O)C1(C)CCCC1 [compound 038, (S)-3-hydroxy-N,N-dimethyl-4-((2-((2-methyl-1-(1-methylcyclopentyl)propyl)amino)-3,4-dioxocyclobut-1-en-1-yl)amino)picolinamide]
60.8 | – | Cc1c(Cl)ccnc1[C@H](Nc1c(Nc2ccnc(C(=O)N(C)C)c2O)c(=O)c1=O)C1(C)CCCC1 [compound 048, (R)-4-((2-(((4-chloro-3-methylpyridin-2-yl)(1-methylcyclopentyl)methyl)amino)-3,4-dioxocyclobut-1-en-1-yl)amino)-3-hydroxy-N,N-dimethylpicolinamide]
